The record followed here is patent US8119635B2, “Diazabicyclic central nervous system active agents” (Abbott Laboratories, priority 2000, dated 2012).

Molecules are shown by their SMILES. Counter-ions that a name gives are not always drawn. Like-named read-outs stand apart in the source and are kept apart here.

One test has as its system Male Sprague-Dawley rats. Kind of test: Formalin test (analgesia). The conditions noted are these: Rattus norvegicus, ip, intraperitoneally 5 minutes before injection of 50 μL 5% formalin into rear paw, nocifensive behaviors, read-out: (MED) minimally effective dose, formalin test. The class given is in vivo. As to the method: Another in vivo protocol utilized to determine the effectiveness of nicotinic acetylcholine receptor ligands as analgesic agents was the formalin test.
Male Sprague-Dawley rats (Charles River, Portage, Mich.) weighing 200 to 400 grams were used for all experiments. After a 20 minute period of acclimation to individual cages, 50 μL of a 5% formalin solution was injected subcutaneous into the dorsal aspect of one of the rear paws and the rats were then returned to the clear observation cages suspended above mirror panels. […] Phase 1 of the formalin test was defined as the period of time immediately after injection of formalin until 10 minutes after the formalin injection (i.e., 0-10 minutes after formalin). Phase 2 was defined as the 20 minute period from 30 to 50 minutes after formalin injection. The investigator recorded nocifensive behaviors in the injected paw of four animals during the session by observing each animal for one 15 second observation period during each 1 minute interval. Nocifensive behaviors recorded included flinching, licking or biting the injected paw. In dose-response studies, the test compound (or saline) was administered intraperitoneally 5 minutes before injection of formalin.

Test [1] deals with T1, neuronal nicotinic acetylcholine receptors (Rattus norvegicus, UniProt P09483+P12390).
T1 construct: crude synaptic membrane preparations from whole rat brain; from tissue; host or cells: whole rat brain, crude synaptic membranes
T1 sequence (P09483 31-630): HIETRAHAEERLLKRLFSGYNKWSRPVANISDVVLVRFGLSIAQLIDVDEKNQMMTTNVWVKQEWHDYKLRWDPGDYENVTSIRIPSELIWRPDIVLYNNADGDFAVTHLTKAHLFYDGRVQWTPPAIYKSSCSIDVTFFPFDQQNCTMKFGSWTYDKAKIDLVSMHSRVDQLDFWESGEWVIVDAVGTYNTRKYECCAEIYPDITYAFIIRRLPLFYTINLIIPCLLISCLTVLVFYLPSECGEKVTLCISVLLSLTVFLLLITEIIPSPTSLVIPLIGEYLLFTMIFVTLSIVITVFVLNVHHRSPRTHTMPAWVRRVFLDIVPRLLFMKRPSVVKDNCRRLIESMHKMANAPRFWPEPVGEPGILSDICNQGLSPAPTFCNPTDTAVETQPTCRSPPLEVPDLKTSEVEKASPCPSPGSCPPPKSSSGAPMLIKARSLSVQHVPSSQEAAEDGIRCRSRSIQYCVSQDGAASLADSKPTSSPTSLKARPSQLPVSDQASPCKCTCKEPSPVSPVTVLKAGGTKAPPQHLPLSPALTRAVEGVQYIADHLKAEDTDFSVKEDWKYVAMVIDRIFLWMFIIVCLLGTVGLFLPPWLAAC
T1 sequence (P12390 25-500): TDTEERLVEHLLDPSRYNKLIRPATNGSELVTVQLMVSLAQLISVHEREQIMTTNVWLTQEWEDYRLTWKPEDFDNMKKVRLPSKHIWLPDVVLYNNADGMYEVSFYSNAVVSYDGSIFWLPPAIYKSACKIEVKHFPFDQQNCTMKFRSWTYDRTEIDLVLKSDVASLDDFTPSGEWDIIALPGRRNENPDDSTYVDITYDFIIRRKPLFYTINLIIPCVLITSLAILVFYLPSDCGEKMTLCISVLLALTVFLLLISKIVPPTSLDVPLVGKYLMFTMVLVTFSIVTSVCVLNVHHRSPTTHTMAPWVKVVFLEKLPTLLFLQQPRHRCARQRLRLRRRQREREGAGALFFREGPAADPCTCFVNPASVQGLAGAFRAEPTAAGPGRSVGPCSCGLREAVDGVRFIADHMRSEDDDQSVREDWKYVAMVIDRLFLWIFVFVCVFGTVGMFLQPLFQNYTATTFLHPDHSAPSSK
The experiment in a line: Binding of [3H]-cytisine to neuronal nicotinic acetylcholine receptors, crude synaptic membranes from whole rat brain. As to the method:
The In Vitro protocols for determination of nicotinic acetylcholine channel receptor binding potencies of ligands were determined as follows.
Washed membranes were stored at −80° C. prior to use. Frozen aliquots were slowly thawed and resuspended in 20 volumes of buffer (containing: 120 mM NaCl, 5 mM KCl, 2 mM MgCl2, 2 mM CaCl2 and 50 mM Tris-Cl, pH 7.4 @[…]). After centrifuging at 20,000×g for 15 minutes, the pellets were resuspended in 30 volumes of buffer.
The test compounds were dissolved in water to make 10 mM stock solutions. Each solution was then diluted (1:100) with buffer (as above) and further taken through seven serial log dilutions to produce test solutions from 10^−5 to 10^−11 M.
Samples were incubated for 60 minutes at 4° C., then rapidly filtered through Whatman GF/B filters presoaked in 0.5% polyethyleneimine using 3×4 mL of ice-cold buffer. The filters are counted in 4 mL of Ecolume® (ICN). Nonspecific binding was determined in the presence of 10 μM (−)-nicotine and values were expressed as a percentage of total binding. IC50 values were determined with the RS-1 (BBN) nonlinear least squares curve-fitting program and IC50 values were converted to Ki values using the Cheng and Prusoff correction (Ki=IC50/(1+[ligand]/Kd of ligand).

As a reminder, the Ki is the dissociation constant of the complex between target and ligand, obtained from inhibition or displacement. Consider `c1cncc(N2C[C@@H]3CN[C@@H]3C2)c1` (relative stereo) [Example 38, (cis)-3-(3-pyridinyl)-3,6-diazabicyclo[3.2.0]heptane bis(4-methylbenzenesulfonate)], for which the minimal effective dose in the test with Male Sprague-Dawley rats was over 6.2 µmol/kg. Further, in test [1], the inhibition constant Ki was found to be 0.16 nM.

`Clc1ccc(N2C[C@@H]3CN[C@@H]3C2)cn1` (relative stereo) [Example 41, (cis)-3-(6-chloro-3-pyridinyl)-3,6-diazabicyclo[3.2.0]heptane fumarate]: in the test on Male Sprague-Dawley rats, the minimal effective dose was over 1.9 µmol/kg. For the same molecule, in test [1], the Ki stood at 1.9 nM.

Regarding `c1cncc(N2C[C@@H]3CCNC[C@@H]32)c1` (relative stereo) [Example 44, (cis)-8-(3-pyridinyl)-3,8-diazabicyclo[4.2.0]octane bis(4-methylbenzenesulfonate)], the minimal effective dose in the test on Male Sprague-Dawley rats was determined as 6.2 µmol/kg. This molecule also returned an inhibition constant Ki in test [1] of 0.23 nM.

`N#Cc1cncc(N2CC[C@H]3CN[C@H]3C2)c1` (relative stereo) [Example 62, (cis)-5-[3,8-diazabicyclo[4.2.0]oct-3-yl]nicotinonitrile fumarate]: in the test on Male Sprague-Dawley rats, the minimal effective dose turned out to be 0.19 µmol/kg. This molecule also showed an inhibition constant Ki in test [1] of 0.1 nM.

Turning to `C#Cc1cncc(N2C[C@H]3CCN[C@H]3C2)c1` [Example 35, (3aR,6aR)-5-(5-ethynyl-3-pyridinyl)octahydropyrrolo[3,4-b]pyrrole hydrochloride dihydrochloride], the minimal effective dose in the test with Male Sprague-Dawley rats was found to be 1.9 µmol/kg. Moreover, the Ki in test [1] stood at 0.13 nM.

Turning to `Brc1cncc(N2C[C@H]3CCN[C@H]3C2)c1` [Example 36, (3aR,6aR)-5-(5-bromo-3-pyridinyl)octahydropyrrolo[3,4-b]pyrrole dihydrochloride], the minimal effective dose with Male Sprague-Dawley rats turned out to be 6.2 µmol/kg. This molecule yielded a Ki in test [1] of 0.17 nM.

Turning to `N#Cc1cncc(N2C[C@H]3CCN[C@H]3C2)c1` [Example 37, 5-((3aR,6aR)-hexahydropyrrolo[3,4-b]pyrrol-5(1H)-yl)nicotinonitrile], the minimal effective dose with Male Sprague-Dawley rats was 6.2 µmol/kg. In test [1], this molecule showed an inhibitory constant (Ki) of 1.2 nM.

Turning to `c1cncc(N2CC3CNCC32)c1` (stereo not drawn) [Example 40, (cis)-6-(3′-pyridinyl)-3,6-diazabicyclo[3.2.0]heptane fumarate], the minimal effective dose with Male Sprague-Dawley rats is 1.9 µmol/kg. This molecule also yielded a Ki in test [1] of 6.2 nM.

Consider `COc1cc(N2C[C@H]3CCN[C@H]3C2)cnc1Br` [Example 43, (3aR,6aR)-5-(6-bromo-5-methoxy-3-pyridinyl)octahydropyrrolo[3,4-b]pyrrole], for which the minimal effective dose with Male Sprague-Dawley rats came to 6.2 µmol/kg. In test [1], affinity was put at a Ki of 0.3 nM.

Consider `Clc1ccc(N2C[C@H]3CCNC[C@H]32)cn1` [Example 47, (1S,6R)-8-(6-chloro-3-pyridinyl)-3,8-diazabicyclo[4.2.0]octane difumarate], for which the minimal effective dose in the test on Male Sprague-Dawley rats came to 1.9 µmol/kg. Moreover, the inhibition constant (Ki) in test [1] ([3H]-CYT 1.25 nM, whole rat brain membranes, 60 minutes at 4° C., IC50 converted to Ki by Cheng and Prusoff correction, read-out: Average Ki) worked out at 0.8 nM.

Turning to `N#Cc1cncc(N2C[C@@H]3CCNC[C@@H]32)c1` [Example 50, 5-[(1R,6S)-3,8-diazabicyclo[4.2.0]oct-8-yl]nicotinonitrile fumarate], the minimal effective dose with Male Sprague-Dawley rats amounted to 6.2 µmol/kg. Moreover, the inhibition constant (Ki) in test [1] was 0.51 nM.

Take `N#Cc1cc(N2C[C@H]3CCN[C@H]3C2)cnc1Br` [Example 51, 5-((3aR,6aR)-hexahydropyrrolo[3,4-b]pyrrol-5(1H)-yl)-2-bromonicotinonitrile fumarate]: the minimal effective dose in the test with Male Sprague-Dawley rats was 0.62 µmol/kg. The affinity in test [1] corresponds to a Ki of 0.12 nM.

Turning to `c1cncc(N2C[C@H]3CNC[C@H]32)c1` [Example 52, (1R,5S)-6-(3-pyridinyl)-3,6-diazabicyclo[3.2.0]heptane fumarate], the minimal effective dose in the test with Male Sprague-Dawley rats was 19 µmol/kg. For the same molecule, the affinity in test [1], expressed as Ki, was 1.3 nM.

Take `Brc1cncc(N2C[C@H]3CNC[C@H]32)c1` [Example 53, (1R,5S)-6-(5-bromo-3-pyridinyl)-3,6-diazabicyclo[3.2.0]heptane fumarate]: in the test with Male Sprague-Dawley rats, the minimal effective dose is over 19 µmol/kg. Besides, in test [1], the inhibition constant (Ki) worked out at 3.1 nM.

With `Clc1ccc(N2C[C@@H]3CNC[C@@H]32)cn1` [Example 54, (1S,5R)-6-(6-chloro-3-pyridinyl)-3,6-diazabicyclo[3.2.0]heptane fumarate], the minimal effective dose in the test on Male Sprague-Dawley rats was found to be 1.9 µmol/kg. The molecule further registered a Ki in test [1] of 1.3 nM.

On to `c1cncc(N2C[C@@H]3CNC[C@@H]32)c1` [Example 55, (1S,5R)-6-(3-pyridinyl)-3,6-diazabicyclo[3.2.0]heptane fumarate], for which the minimal effective dose in the test with Male Sprague-Dawley rats is over 19 µmol/kg. In test [1], this molecule registered a Ki of 0.72 nM.

With `C=Cc1cncc(N2C[C@H]3CCN[C@H]3C2)c1` [Example 56, (3aR,6aR)-5-(5-vinyl-3-pyridinyl)octahydropyrrolo[3,4-b]pyrrole dihydrochloride], in the test on Male Sprague-Dawley rats, the minimal effective dose is 1.9 µmol/kg. The molecule also had an inhibition constant (Ki) in test [1] of 0.62 nM.

`Cc1cncc(N2C[C@H]3CCN[C@H]3C2)c1` [Example 58, (3aR,6aR)-5-(5-methyl-3-pyridinyl)octahydropyrrolo[3,4-b]pyrrole trihydrochloride]: the minimal effective dose with Male Sprague-Dawley rats was found to be 1.9 µmol/kg. Further, the inhibition constant Ki in test [1] is 0.53 nM.

For the molecule `Cc1cc(N2C[C@H]3CCN[C@H]3C2)cnc1Br` [Example 60, (3aR,6aR)-5-(6-bromo-5-methyl-3-pyridinyl)octahydropyrrolo[3,4-b]pyrrole dihydrochloride], the minimal effective dose in the test on Male Sprague-Dawley rats was determined as 0.62 µmol/kg. The inhibitory constant (Ki) in test [1] worked out at 0.11 nM.

Consider `CCc1cncc(N2C[C@H]3CCN[C@H]3C2)c1` [Example 63, (3aR,6aR)-5-(5-ethyl-3-pyridinyl)octahydropyrrolo[3,4-b]pyrrole], for which the minimal effective dose in the test with Male Sprague-Dawley rats is over 19 µmol/kg. Moreover, in test [1], the inhibition constant Ki came to 0.56 nM.

As to `OCc1cc(N2C[C@H]3CCN[C@H]3C2)cnc1Br` [Example 64, [5-((3aR,6aR)-hexahydropyrrolo[3,4-b]pyrrol-5(1H)-yl)-2-bromo-3-pyridinyl]methanol fumarate], the minimal effective dose with Male Sprague-Dawley rats is over 19 µmol/kg. Besides, in test [1], the Ki turned out to be 1.1 nM.

In the case of `C=Cc1cc(N2C[C@H]3CCN[C@H]3C2)cnc1Br` [Example 65, (3aR,6aR)-5-(6-bromo-5-vinyl-3-pyridinyl)octahydropyrrolo[3,4-b]pyrrole dihydrochloride], the minimal effective dose in the test on Male Sprague-Dawley rats is over 19 µmol/kg. Affinity in test [1] was put at a Ki of 3.1 nM.

On to `COCc1cc(N2C[C@H]3CCN[C@H]3C2)cnc1Br` [Example 67, (3aR,6aR)-5-[6-bromo-5-(methoxymethyl)-3-pyridinyl]octahydropyrrolo[3,4-b]pyrrole fumarate], for which the minimal effective dose with Male Sprague-Dawley rats amounted to 19 µmol/kg. The inhibitory constant (Ki) in test [1] was determined as 1 nM.

With `C#Cc1cncc(N2C[C@@H]3CNC[C@@H]32)c1` [Example 68, (1S,5R)-6-(5-ethynyl-3-pyridinyl)-3,6-diazabicyclo[3.2.0]heptane fumarate], in the test on Male Sprague-Dawley rats, the minimal effective dose is over 19 µmol/kg. In test [1], this molecule returned a Ki of 0.61 nM.

For `C=Cc1cncc(N2C[C@@H]3CNC[C@@H]32)c1` [Example 69, (1S,5R)-6-(5-vinyl-3-pyridinyl)-3,6-diazabicyclo[3.2.0]heptane fumarate], in the test with Male Sprague-Dawley rats, the minimal effective dose is over 19 µmol/kg. This molecule also showed a Ki in test [1] of 3.2 nM.

`N#Cc1cncc(N2C[C@@H]3CNC[C@@H]32)c1` [Example 70, 5-[(1S,5R)-3,6-diazabicyclo[3.2.0]hept-6-yl]nicotinonitrile fumarate]: the minimal effective dose in the test with Male Sprague-Dawley rats is over 19 µmol/kg. Moreover, the affinity in test [1], expressed as Ki, was 0.86 nM.

Take `Brc1cncc(N2C[C@@H]3CNC[C@@H]32)c1` [Example 71, (1S,5R)-6-(5-bromo-3-pyridinyl)-3,6-diazabicyclo[3.2.0]heptane]: the minimal effective dose in the test with Male Sprague-Dawley rats is over 19 µmol/kg. Further, in test [1], the Ki is 1.5 nM.

Take `C=Cc1cc(N2C[C@@H]3CNC[C@@H]32)cnc1Br` [Example 72, (1S,5R)-6-(6-bromo-5-vinyl-3-pyridinyl)-3,6-diazabicyclo[3.2.0]heptane fumarate]: the minimal effective dose with Male Sprague-Dawley rats is over 19 µmol/kg. The molecule also displayed an inhibition constant Ki in test [1] of 0.6 nM.

In the case of `N#Cc1cncc(N2C[C@H]3CNC[C@H]32)c1` [Example 74, 5-[(1R,5S)-3,6-diazabicyclo[3.2.0]hept-6-yl]nicotinonitrile bis(4-methylbenzenesulfonate)], in the test with Male Sprague-Dawley rats, the minimal effective dose was 1.9 µmol/kg. The molecule further gave a Ki in test [1] of 3.2 nM.

In the case of `N#Cc1cc(N2C[C@H]3CNC[C@H]32)cnc1Br` [Example 76, 2-bromo-5-[(1R,5S)-3,6-diazabicyclo[3.2.0]hept-6-yl]nicotinonitrile fumarate], in the test with Male Sprague-Dawley rats, the minimal effective dose turned out to be 1.9 µmol/kg. Further, the affinity in test [1], expressed as Ki, was 0.28 nM.

With `Clc1cc(N2C[C@H]3CNC[C@H]32)cnc1Cl` [Example 85, (1R,5S)-6-(5,6-dichloro-3-pyridinyl)-3,6-diazabicyclo[3.2.0]heptane fumarate], the minimal effective dose in the test on Male Sprague-Dawley rats was over 19 µmol/kg. This molecule also yielded an inhibitory constant (Ki) in test [1] of 0.27 nM.
